Structures can show the parent of a compound that is named as a salt.
Key:
[1] = biological target: CA-IV (Homo sapiens, UniProt P22748); experiment: stopped-flow CO2 hydration assay, CA-IV; assay type: biochemical; settings: errors 5–10% from three assays, read-out: Inhibition constant (Ki) CA-IV
[2] = biological target: CA-II (Homo sapiens, UniProt P00918); experiment: stopped-flow CO2 hydration assay, CA-II; assay type: biochemical; settings: errors 5–10% from three assays, read-out: Inhibition constant (Ki) CA-II
[3] = biological target: CA-IX (Homo sapiens, UniProt Q16790); experiment: stopped-flow CO2 hydration assay, CA-IX; assay type: biochemical; settings: errors 5–10% from three assays, read-out: Inhibition constant (Ki) CA-IX
[4] = biological target: CA-I (Homo sapiens, UniProt P00915); experiment: stopped-flow CO2 hydration assay, CA-I; assay type: biochemical; settings: errors 5–10% from three assays, read-out: Inhibition constant (Ki) CA-I
Sequence of CA-I (P00915 whole entry): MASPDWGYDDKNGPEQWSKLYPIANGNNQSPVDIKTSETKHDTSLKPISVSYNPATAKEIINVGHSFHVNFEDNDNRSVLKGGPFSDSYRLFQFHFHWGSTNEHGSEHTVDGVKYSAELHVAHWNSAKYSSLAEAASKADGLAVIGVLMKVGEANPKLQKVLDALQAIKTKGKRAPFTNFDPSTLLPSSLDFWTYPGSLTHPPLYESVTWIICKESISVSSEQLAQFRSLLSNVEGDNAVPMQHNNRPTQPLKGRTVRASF

Sequence of CA-IV (P22748 19-312): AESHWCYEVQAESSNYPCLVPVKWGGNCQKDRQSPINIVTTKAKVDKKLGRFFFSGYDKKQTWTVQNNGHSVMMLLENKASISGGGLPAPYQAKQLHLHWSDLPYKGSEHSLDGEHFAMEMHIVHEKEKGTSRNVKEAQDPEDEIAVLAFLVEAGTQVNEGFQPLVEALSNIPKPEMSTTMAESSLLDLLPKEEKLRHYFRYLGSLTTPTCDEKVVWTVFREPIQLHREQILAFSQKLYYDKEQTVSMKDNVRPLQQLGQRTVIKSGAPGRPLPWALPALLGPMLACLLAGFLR

SMILES	Ki [1]	Ki [2]	Ki [3]	Ki [4]	melting point
C[N+](C)(Cc1ccc(F)cc1)Cc1ccc(C(=O)NCc2ccc(S(N)(=O)=O)cc2)cc1 [Compound 3, N-4-[[[4-(aminosulfonyl)benzyl]amino]carbonyl] benzyl-N,N-dimethyl-4-fluorobenzylammonium bromide]	3630 nM	480 nM	960 nM	780 nM	
C[N+](C)(Cc1ccc(F)cc1)Cc1ccc(C(=O)NCc2ccc(S(N)(=O)=O)cc2)cc1 (as salt: bromide) [Compound 3, N-4-[[[4-(aminosulfonyl)benzyl]amino]carbonyl] benzyl-N,N-dimethyl-4-fluorobenzylammonium bromide]					228 °C
C[N+](C)(Cc1ccc(F)cc1)Cc1ccc(C(=O)NCc2cccc(S(N)(=O)=O)c2)cc1 [Compound 1, N-4-[[[3-(aminosulfonyl)benzyl]amino]carbonyl] benzyl-N,N-dimethyl-4-fluorobenzylammonium bromide]	> 50000 nM	720 nM	440 nM	890 nM	
C[N+](C)(Cc1ccc(F)cc1)Cc1ccc(C(=O)NCc2cccc(S(N)(=O)=O)c2)cc1 (as salt: bromide) [Compound 1, N-4-[[[3-(aminosulfonyl)benzyl]amino]carbonyl] benzyl-N,N-dimethyl-4-fluorobenzylammonium bromide]					226 °C

Now from value to compound:

Ki [1]	Ki [2]	Ki [3]	Ki [4]	melting point	SMILES
9540 nM	70 nM	220 nM	520 nM		C[N+](C)(Cc1ccc(F)cc1)Cc1ccc(C(=O)NCCc2ccc(S(N)(=O)=O)cc2)cc1 [Compound 2, N-4-[[[2-[4-(aminosulfonyl)phenyl]ethyl]amino]carbonyl]benzyl-N,N-dimethyl-4-fluorobenzylammonium bromide]
				215 °C	C[N+](C)(Cc1ccc(F)cc1)Cc1ccc(C(=O)NCCc2ccc(S(N)(=O)=O)cc2)cc1 (as salt: bromide) [Compound 2, N-4-[[[2-[4-(aminosulfonyl)phenyl]ethyl]amino]carbonyl]benzyl-N,N-dimethyl-4-fluorobenzylammonium bromide]

— PMC6445240, “Design, synthesis and evaluation of ^18F-labeled cationic carbonic anhydrase IX inhibitors for PET imaging” (Journal of Enzyme Inhibition and Medicinal Chemistry, 2017)
